In ChEMBL document CHEMBL1765043, “New synthetic triterpenoids: potent agents for prevention and treatment of tissue injury caused by inflammatory and oxidative stress” (J Nat Prod, 2011) one finds IC50 data, which are given here for three compounds.

In this assay the test system is RAW264.7. As to the kind of experiment: Antiinflammatory activity against IFN-gamma, TNF-alpha and IL-1-stimulated mouse RAW264.7 cells assessed as inhibition of cellular iNOS synthesis. It is filed as functional, cell-based.
Turning to `C[C@H]1[C@H](C)CC[C@]2(C(=O)O)CC[C@]3(C)C(=CC(=O)[C@@H]4[C@@]5(C)C=CC(=O)C(C)(C)[C@@H]5CC[C@]43C)[C@H]12`, the IC50 was 17.6 µM. As for `CC1(C)CC[C@]2(C(=O)O)CC[C@]3(C)[C@H](C(=O)C=C4[C@@]5(C)C=CC(=O)C(C)(C)[C@@H]5CC[C@]43C)[C@@H]2C1`, the figure is 0.2 µM; as for `C[C@H]1[C@H](C)CC[C@]2(C(=O)O)CC[C@]3(C)C(=CC[C@@H]4[C@@]5(C)C=CC(=O)C(C)(C)[C@@H]5CC[C@]43C)[C@H]12`, 6 µM.

By IC50 is commonly meant the concentration needed to halve the response being measured.
